According to PubChem BioAssay (NCI):
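Cultured in 96-well plates, cells were exposed to test compound for 48 hours across five concentrations. At the GI50, growth is halved. TGI: total growth inhibition.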

Legend:
Assay in all cases: NCI anticancer screen, dose series, 48 h
[1] = system: MDA-MB-435
[2] = system: HT29 colon
[3] = system: HCT-116 colon
[4] = system: HOP-62 NSCLC
[5] = system: KM12 colon
[6] = system: HS 578T breast
[7] = system: K-562 leukemia
[8] = system: SNB-19 CNS
[9] = system: SW-620 colon
[10] = system: RPMI-8226 leukemia
[11] = system: OVCAR-4 ovarian
[12] = system: SK-MEL-28 melanoma
[13] = system: BT-549 breast
[14] = system: LOX IMVI melanoma
[15] = system: SF-295 CNS
[16] = system: MOLT-4 leukemia
[17] = system: PC-3 prostate
[18] = system: A549 NSCLC
[19] = system: MCF7 breast
[20] = system: SK-OV-3 ovarian
[21] = system: SF-539 CNS
[22] = system: ACHN renal
[23] = system: NCI-H226 lung
[24] = system: UACC-257 melanoma
[25] = system: 786-0 renal
[26] = system: U251 CNS
[27] = system: COLO 205 colon
[28] = system: NCI/ADR-RES ovarian
[29] = system: CAKI-1 renal
[30] = system: TK-10 renal
[31] = system: UO-31 renal
[32] = system: MALME-3M melanoma
[33] = system: DU-145 prostate
[34] = system: CCRF-CEM leukemia
[35] = system: OVCAR-5 ovarian
[36] = system: OVCAR-8 ovarian
[37] = system: T-47D breast
[38] = system: SNB-75 CNS
[39] = system: M14 melanoma
[40] = system: OVCAR-3 ovarian
[41] = system: EKVX NSCLC
[42] = system: RXF 393 renal
[43] = system: HOP-92 NSCLC
[44] = system: NCI-H23 lung
[45] = system: SK-MEL-5 melanoma
[46] = system: NCI-H460 lung
[47] = system: IGROV1 ovarian
[48] = system: HCC-2998 colon
[49] = system: SR leukemia
[50] = system: NCI-H522 lung
[51] = system: MDA-MB-231 breast
[52] = system: HL-60(TB) leukemia
[53] = system: HCT-15 colon
[54] = system: SK-MEL-2 melanoma
[55] = system: SF-268 CNS
[56] = system: UACC-62 melanoma
[57] = system: SN12C renal

Work on `CC1=C2C(=O)[C@](C)(CO)C=C2C(=O)[C@](C)(O)C12CC2` yielded a GI50 [1] of 1.84 µM, a TGI [1] of 3.41 µM and a GI50 [2] of 3.25 µM. For the same molecule, the TGI [2] was 11.8 µM, the GI50 [3] was 1.82 µM and the TGI [3] was 3.84 µM. The GI50 [4] was 3.2 µM, the TGI [4] was 11.6 µM and the GI50 [5] was 2.23 µM. It also gave a TGI [5] of 5 µM, a GI50 [6] of 2.01 µM and a TGI [6] of 5 µM. It also gave a GI50 [7] of 3.47 µM, a TGI [7] of over 100 µM and a GI50 [8] of 3.05 µM. It also gave a TGI [8] of 10.5 µM, a GI50 [9] of 1.86 µM and a TGI [9] of 3.96 µM. The GI50 [10] was 2.28 µM, the TGI [10] was 5.63 µM and the GI50 [11] was 1.91 µM. It also gave a TGI [11] of 3.36 µM, a GI50 [12] of 2.06 µM and a TGI [12] of 4.19 µM. The GI50 [13] was 1.75 µM, the TGI [13] was 3.6 µM and the GI50 [14] was 1.72 µM. It also gave a TGI [14] of 3.3 µM, a GI50 [15] of 2.22 µM and a TGI [15] of 5.2 µM. For the same molecule, the GI50 [16] was 3.23 µM, the TGI [16] was 13.1 µM and the GI50 [17] was 2.83 µM. It also gave a TGI [17] of 9.03 µM, a GI50 [18] of 2.91 µM and a TGI [18] of 9.46 µM. The GI50 [19] was 1.47 µM, the TGI [19] was 3.16 µM and the GI50 [20] was 3.36 µM. For the same molecule, the TGI [20] was 10.9 µM, the GI50 [21] was 1.82 µM and the TGI [21] was 3.54 µM. The GI50 [22] was 1.86 µM, the TGI [22] was 3.56 µM and the GI50 [23] was 2.18 µM. It also gave a TGI [23] of 5.71 µM, a GI50 [24] of 2.59 µM and a TGI [24] of 7.35 µM. For the same molecule, the GI50 [25] was 2.1 µM, the TGI [25] was 4.92 µM and the GI50 [26] was 2.52 µM. For the same molecule, the TGI [26] was 7.48 µM, the GI50 [27] was 2.47 µM and the TGI [27] was 6.4 µM. It also gave a GI50 [28] of 1.89 µM, a TGI [28] of 4.02 µM and a GI50 [29] of 1.63 µM. The TGI [29] was 3.07 µM, the GI50 [30] was 2.23 µM and the TGI [30] was 5.63 µM. It also gave a GI50 [31] of 1.66 µM, a TGI [31] of 3.17 µM and a GI50 [32] of 1.86 µM. For the same molecule, the TGI [32] was 3.52 µM, the GI50 [33] was 2.2 µM and the TGI [33] was 4.89 µM. It also gave a GI50 [34] of 3.08 µM, a TGI [34] of 13.8 µM and a GI50 [35] of 2.53 µM. It also gave a TGI [35] of 6.67 µM, a GI50 [36] of 2.62 µM and a TGI [36] of 8.31 µM. For the same molecule, the GI50 [37] was 2.33 µM, the TGI [37] was 6.42 µM and the GI50 [38] was 1.26 µM. The TGI [38] was 3.94 µM, the GI50 [39] was 1.8 µM and the TGI [39] was 3.56 µM. For the same molecule, the GI50 [40] was 1.8 µM, the TGI [40] was 3.26 µM and the GI50 [41] was 3.05 µM. The TGI [41] was 10.2 µM, the GI50 [42] was 1.88 µM and the TGI [42] was 3.52 µM. It also gave a GI50 [43] of 2.12 µM, a TGI [43] of 4.45 µM and a GI50 [44] of 1.84 µM. For the same molecule, the TGI [44] was 3.57 µM, the GI50 [45] was 1.81 µM and the TGI [45] was 3.29 µM. For the same molecule, the GI50 [46] was 2.49 µM, the TGI [46] was 7.21 µM and the GI50 [47] was 2.4 µM. The TGI [47] was 6.47 µM, the GI50 [48] was 1.72 µM and the TGI [48] was 3.33 µM. For the same molecule, the GI50 [49] was 2.52 µM, the TGI [49] was 17.7 µM and the GI50 [50] was 2.04 µM. It also gave a TGI [50] of 4.31 µM, a GI50 [51] of 1.98 µM and a TGI [51] of 3.99 µM. It also gave a GI50 [52] of 2.46 µM, a TGI [52] of 6.21 µM and a GI50 [53] of 2.08 µM. For the same molecule, the TGI [53] was 4.92 µM, the GI50 [54] was 2.39 µM and the TGI [54] was 5.2 µM. It also gave a GI50 [55] of 2.49 µM, a TGI [55] of 7.05 µM and a GI50 [56] of 1.88 µM. The TGI [56] was 3.89 µM, the GI50 [57] was 2.19 µM and the TGI [57] was 5.62 µM.
